Test results taken from ChEMBL document CHEMBL4266012, “Identification of Quinoline-Based RIP2 Kinase Inhibitors with an Improved Therapeutic Index to the hERG Ion Channel” (ACS Med Chem Lett, 2018).

Key:
[1] = Volume of distribution at steady state in Beagle dog at 1.1 mg/kg, iv or 2 mg/kg, po by LC-MS/MS analysis; assay type: ADME, organism-based, Canis lupus familiaris; settings: in vivo, read-out: Vdss
[2] = Half life in Beagle dog at 1.1 mg/kg, iv by LC-MS/MS analysis; assay type: ADME, organism-based, Canis lupus familiaris; settings: in vivo
[3] = AUC in Beagle dog at 2 mg/kg, po by LC-MS/MS analysis; assay type: ADME, organism-based, Canis lupus familiaris; settings: in vivo
[4] = Cardiotoxicity in arterially perfused rabbit cardiac left ventricular wedge assessed as QRS interval time at 3 uM by electrophysiology assay (reference value: 33.9 +/- 2.7 milliseconds); assay type: toxicity, tissue-based, Oryctolagus cuniculus, Heart left ventricle
[5] = Cmax in Beagle dog at 2 mg/kg, po by LC-MS/MS analysis; assay type: ADME, organism-based, Canis lupus familiaris; parameters: dose 2 mg/kg, route oral; settings: in vivo
[6] = Cmax in Sprague-Dawley rat at 2 mg/kg, po by LC-MS/MS analysis; assay type: ADME, organism-based; parameters: dose 2 mg/kg, route oral; settings: in vivo
[7] = Cardiotoxicity in arterially perfused rabbit cardiac left ventricular wedge assessed as Tp-e interval time at 3 uM by electrophysiology assay (reference value: 59.2 +/- 4.8 milliseconds); assay type: toxicity, tissue-based, Oryctolagus cuniculus, Heart left ventricle
[8] = Cardiotoxicity in arterially perfused rabbit cardiac left ventricular wedge assessed as change in isometric contractile force at 3 uM by electrophysiology assay (reference value: 0%); assay type: toxicity, tissue-based, Oryctolagus cuniculus, Heart left ventricle
[9] = Half life in Sprague-Dawley rat at 1.1 mg/kg, iv by LC-MS/MS analysis; assay type: ADME, organism-based; settings: in vivo
[10] = Cardiotoxicity in arterially perfused rabbit cardiac left ventricular wedge assessed as Tp-e interval time at 10 uM by electrophysiology assay (reference value: 59.2 +/- 4.8 milliseconds); assay type: toxicity, tissue-based, Oryctolagus cuniculus, Heart left ventricle
[11] = Clearance in Sprague-Dawley rat at 1.1 mg/kg, iv or 2 mg/kg, po by LC-MS/MS analysis; assay type: ADME, organism-based; settings: in vivo
[12] = Clearance in Beagle dog at 1.1 mg/kg, iv or 2 mg/kg, po by LC-MS/MS analysis; assay type: ADME, organism-based, Canis lupus familiaris; settings: in vivo
[13] = Cardiotoxicity in arterially perfused rabbit cardiac left ventricular wedge assessed as Tp-e interval time at 1 uM by electrophysiology assay (reference value: 59.2 +/- 4.8 milliseconds); assay type: toxicity, tissue-based, Oryctolagus cuniculus, Heart left ventricle
[14] = Cardiotoxicity in arterially perfused rabbit cardiac left ventricular wedge assessed as change in QT interval at 1 uM by electrophysiology assay; assay type: toxicity, tissue-based, Oryctolagus cuniculus, Heart left ventricle
[15] = Cardiotoxicity in arterially perfused rabbit cardiac left ventricular wedge assessed as change in isometric contractile force at 1 uM by electrophysiology assay (reference value: 0%); assay type: toxicity, tissue-based, Oryctolagus cuniculus, Heart left ventricle
[16] = Cardiotoxicity in arterially perfused rabbit cardiac left ventricular wedge assessed as Tp-e interval time at 0.3 uM by electrophysiology assay (reference value: 59.2 +/- 4.8 milliseconds); assay type: toxicity, tissue-based, Oryctolagus cuniculus, Heart left ventricle
[17] = Fraction unbound in Sprague-Dawley rat plasma; assay type: ADME, cell-free
[18] = Fraction unbound in Beagle dog plasma; assay type: ADME, cell-free, Canis lupus familiaris
[19] = Oral bioavailability in Beagle dog at 2 mg/kg by LC-MS/MS analysis; assay type: ADME, organism-based, Canis lupus familiaris; settings: in vivo
[20] = Cardiotoxicity in arterially perfused rabbit cardiac left ventricular wedge assessed as QRS interval time at 1 uM by electrophysiology assay (reference value: 33.9 +/- 2.7 milliseconds); assay type: toxicity, tissue-based, Oryctolagus cuniculus, Heart left ventricle
[21] = Cardiotoxicity in arterially perfused rabbit cardiac left ventricular wedge assessed as QRS interval time at 10 uM by electrophysiology assay (reference value: 33.9 +/- 2.7 milliseconds); assay type: toxicity, tissue-based, Oryctolagus cuniculus, Heart left ventricle
[22] = AUC in Sprague-Dawley rat at 2 mg/kg, po by LC-MS/MS analysis; assay type: ADME, organism-based; settings: in vivo
[23] = Oral bioavailability in Sprague-Dawley rat at 2 mg/kg by LC-MS/MS analysis; assay type: ADME, organism-based; settings: in vivo
[24] = Volume of distribution at steady state in Sprague-Dawley rat at 1.1 mg/kg, iv or 2 mg/kg, po by LC-MS/MS analysis; assay type: ADME, organism-based; settings: in vivo, read-out: Vdss
[25] = Cardiotoxicity in arterially perfused rabbit cardiac left ventricular wedge assessed as change in isometric contractile force at 0.3 uM by electrophysiology assay (reference value: 0%); assay type: toxicity, tissue-based, Oryctolagus cuniculus, Heart left ventricle
[26] = Cardiotoxicity in arterially perfused rabbit cardiac left ventricular wedge assessed as prolongation of QT interval by electrophysiology assay; assay type: toxicity, tissue-based, Oryctolagus cuniculus, Heart left ventricle
[27] = Cardiotoxicity in arterially perfused rabbit cardiac left ventricular wedge assessed as QRS interval time at 0.3 uM by electrophysiology assay (reference value: 33.9 +/- 2.7 milliseconds); assay type: toxicity, tissue-based, Oryctolagus cuniculus, Heart left ventricle
[28] = Cardiotoxicity in arterially perfused rabbit cardiac left ventricular wedge assessed as Tp-e interval by electrophysiology assay; assay type: toxicity, tissue-based, Oryctolagus cuniculus, Heart left ventricle
[29] = Cardiotoxicity in arterially perfused rabbit cardiac left ventricular wedge assessed as change in QT interval at 10 uM by electrophysiology assay; assay type: toxicity, tissue-based, Oryctolagus cuniculus, Heart left ventricle
[30] = Cardiotoxicity in arterially perfused rabbit cardiac left ventricular wedge assessed as change in isometric contractile force at 10 uM by electrophysiology assay (reference value: 0%); assay type: toxicity, tissue-based, Oryctolagus cuniculus, Heart left ventricle
[31] = Cardiotoxicity in arterially perfused rabbit cardiac left ventricular wedge assessed as change in QT interval at 3 uM by electrophysiology assay; assay type: toxicity, tissue-based, Oryctolagus cuniculus, Heart left ventricle
[32] = Cardiotoxicity in arterially perfused rabbit cardiac left ventricular wedge assessed as change in QT interval at 0.3 uM by electrophysiology assay; assay type: toxicity, tissue-based, Oryctolagus cuniculus, Heart left ventricle
Rattus norvegicus = assay: Time at which plasma concentration stays above in vitro human whole blood IC50 in Crl:CD(SD) rat peritonitis model at 2 mg/kg, po; assay type: ADME, organism-based; settings: in vivo
[33] = Volume of distribution at steady state in Sprague-Dawley rat at 2 mg/kg, iv or 2 mg/kg, po by LC-MS/MS analysis; assay type: ADME, organism-based; settings: in vivo, read-out: Vdss
[34] = Half life in Sprague-Dawley rat at 2 mg/kg, iv by LC-MS/MS analysis; assay type: ADME, organism-based; settings: in vivo
[35] = Clearance in Sprague-Dawley rat at 2 mg/kg, iv or 2 mg/kg, po by LC-MS/MS analysis; assay type: ADME, organism-based; settings: in vivo
[36] = Half life in Sprague-Dawley rat at 1 mg/kg, iv by LC-MS/MS analysis; assay type: ADME, organism-based; settings: in vivo

## COc1cc2nccc(Nc3n[nH]c(C)c3C)c2cc1S(=O)(=O)C(C)(C)C
[1]
  Vd: 3.5 L/kg
[2]
  half-life: 2.5 h
[3]
  AUC: 1900 ng·h/mL
[4]
  Time: 35.2 ms
[5]
  Cmax: 330 ng/mL
[6]
  Cmax: 740 ng/mL
[7]
  Time: 73.3 ms
[8]
  Activity: -22.6%
[9]
  half-life: 3.1 h
[10]
  Time: 77 ms
[11]
  clearance: 12 mL/min/kg
[12]
  clearance: 20 mL/min/kg
[13]
  Time: 67.9 ms
[14]
  Activity: 3.6%
[15]
  Activity: -17.3%
[16]
  Time: 64.2 ms
[17]
  fraction unbound: 0.055
[18]
  fraction unbound: 0.163
[19]
  bioavailability: 96%
[20]
  Time: 35.4 ms
[21]
  Time: 36.3 ms
[22]
  AUC: 2400 ng·h/mL
[23]
  bioavailability: 85%
[24]
  Vd: 1.1 L/kg
[25]
  Activity: -9.9%
[26]
  Activity: Dose-dependent effect
[27]
  Time: 34.9 ms
[28]
  Activity: Dose-dependent effect
[29]
  Activity: 9.3%
[30]
  Activity: -28%
[31]
  Activity: 6.4%
[32]
  Activity: 2%
Rattus norvegicus
  Time: 24 h

## Cc1[nH]nc(Nc2ccnc3ccc(S(=O)(=O)C(C)(C)C)cc23)c1C
[33]
  Vd: 2.1 L/kg
[6]
  Cmax: 990 ng/mL
[34]
  half-life: 4.2 h
[17]
  fraction unbound: 0.112
[35]
  clearance: 12 mL/min/kg
[22]
  AUC: 3800 ng·h/mL
[23]
  bioavailability: 82%

## CC(C)(C)S(=O)(=O)c1ccc2nccc(Nc3n[nH]c4ccc(F)cc34)c2c1
[36]
  half-life: 7 h
[17]
  fraction unbound: 0.026
Rattus norvegicus
  Time: 4 h
